This note sets out measurements from patent US9809573B2, “Substituted pyridine derivatives useful as GSK-3 inhibitors” (priority 2013, dated 2017).

Where two headings read alike, the source gives them in different places.

For one test, the system named is pTau. In words: pTau assay (method not described). The test is classed as cell-based. The settings on record: read-out: pTau.
A further test deals with GSK3β (Homo sapiens, UniProt P49841). In words: GSK3β kinase assay (Caliper LabChip3000, fluoresceinated peptide substrate). The test is classed as biochemical. As to the method:
(§1) The kinase assay was performed in V-bottom 384-well plates. […] The reaction was incubated at room temperature for 20 hours and terminated by adding 45 μl of 35 mM EDTA to each sample. The reaction mixture was analyzed on the Caliper LabChip3000 (Caliper, Hopkinton, Mass.) by electrophoretic separation of the unphosphorylated substrate and phosphorylated product. […] Compounds were dissolved at 10 mM in dimethylsulfoxide (DMSO) and evaluated at eleven concentrations. IC50 values were derived by non-linear regression analysis.

The target in a further test is GSK3α (Homo sapiens, UniProt P49840). In words: biochemical. The following applies: second value of the cell; 250 pM enzyme, 20 uM ATP, 20 hours at room temperature; read-out: GSK3β/α (nM): GSK3α IC50. The method, then:
as §1

[1] abbreviates: first value of the cell, 250 pM enzyme, 20 uM ATP, 20 hours at room temperature, read-out: GSK3β/α (nM): GSK3β IC50.

GSK3α, sequence (P49840 whole entry, species assumed): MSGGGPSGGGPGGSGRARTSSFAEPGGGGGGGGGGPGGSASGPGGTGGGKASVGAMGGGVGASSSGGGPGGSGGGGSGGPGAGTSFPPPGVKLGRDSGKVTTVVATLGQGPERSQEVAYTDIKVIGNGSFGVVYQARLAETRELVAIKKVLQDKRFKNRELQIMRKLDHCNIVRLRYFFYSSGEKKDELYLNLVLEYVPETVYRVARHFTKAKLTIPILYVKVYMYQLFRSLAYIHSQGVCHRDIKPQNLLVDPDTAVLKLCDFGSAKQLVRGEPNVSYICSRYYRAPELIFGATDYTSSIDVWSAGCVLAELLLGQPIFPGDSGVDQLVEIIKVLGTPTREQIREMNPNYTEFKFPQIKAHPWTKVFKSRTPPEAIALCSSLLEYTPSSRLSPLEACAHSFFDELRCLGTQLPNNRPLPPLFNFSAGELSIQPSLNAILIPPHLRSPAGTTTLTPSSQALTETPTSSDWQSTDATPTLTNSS
GSK3β, sequence (P49841 whole entry, species assumed): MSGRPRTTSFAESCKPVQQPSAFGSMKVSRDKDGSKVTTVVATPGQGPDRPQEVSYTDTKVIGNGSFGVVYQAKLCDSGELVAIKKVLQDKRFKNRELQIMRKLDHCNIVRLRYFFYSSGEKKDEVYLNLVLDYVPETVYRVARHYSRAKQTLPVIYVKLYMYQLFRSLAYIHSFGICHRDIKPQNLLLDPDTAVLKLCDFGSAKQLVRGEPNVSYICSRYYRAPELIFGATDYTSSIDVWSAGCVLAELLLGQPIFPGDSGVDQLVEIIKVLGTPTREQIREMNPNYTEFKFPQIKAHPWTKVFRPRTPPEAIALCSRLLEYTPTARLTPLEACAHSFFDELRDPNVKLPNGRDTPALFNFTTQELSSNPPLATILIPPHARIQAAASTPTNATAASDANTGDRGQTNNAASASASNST

For `O=C(Nc1cnccc1-c1ccc(Cl)cc1)c1ccnc(NC(=O)C2CC(Cl)C2)c1` (stereo not drawn) [Example 224, N-(4-(4-chlorophenyl)pyridin-3-yl)-2-((1,3-trans)-3-cholorocyclobutanecarboxamido)isonicotinamide], the IC50 with pTau came to 15 nM.

As for `O=C(Nc1cnc(-c2ccccc2)s1)c1ccnc(NC(=O)C2CC2)c1` [Example 181, 2-(cyclopropanecarboxamido)-N-(2-phenylthiazol-5-yl)isonicotinamide], the IC50 in the test with pTau came to 5500 nM.

With `C=C(C)c1ccncc1NC(=O)c1ccnc(NC(=O)C2CC2)c1` [Example 38, 2-(Cyclopropanecarboxamido)-N-(4-(prop-1-en-2-yl)pyridin-3-yl)isonicotinamide], the IC50 against GSK3β came out at 4.4 nM; in the test on pTau, 80 nM.

`O=C(Nc1cnccc1-c1ccncc1)c1ccnc(NC(=O)C2CC2)c1` [Example 33, N-([4,4′-bipyridin]-3-yl)-2-(cyclopropanecarboxamido)isonicotinamide]: the IC50 at GSK3β (setting [1]) was found to be 28 nM; in the test on pTau, 670 nM.

Regarding `CC(C)c1ccncc1NC(=O)c1ccnc(NC(=O)C2CC2)c1` [Example 39, 2-(Cyclopropanecarboxamido)-N-(4-isopropylpyridine-3-yl)isonicotinamide], the IC50 at GSK3β turned out to be 23 nM; in the test on pTau, 470 nM.

Consider `Cc1ncc(NC(=O)c2ccnc(NC(=O)C3CC3)c2)s1` [Example 177, 2-(cyclopropanecarboxamido)-N-(2-methylthiazol-5-yl)isonicotinamide], for which the IC50 is 61 nM on GSK3β (setting [1]) and 3900 nM in the test with pTau.

Turning to `O=C(Nc1cnccc1C1CCCC1)c1ccnc(NC(=O)C2CC2)c1` [Example 36, N-(4-cyclopentylpyridin-3-yl)-2-(cyclopropanecarboxamido)isonicotinamide], the IC50 at GSK3β worked out at 41 nM; in the test on pTau, 800 nM.

With `O=C(Nc1cnccc1C1CCCCC1)c1ccnc(NC(=O)C2CC2)c1` [Example 37, N-(4-cyclohexylpyridin-3-yl)-2-(cyclopropanecarboxamido)isonicotinamide], the IC50 at GSK3β came out at 120 nM; in the test on pTau, 1200 nM.

Take `O=C(Nc1cnc(-c2ccccn2)s1)c1ccnc(NC(=O)C2CC2)c1` [Example 176, 2-(cyclopropanecarboxamido)-N-(2-(pyridin-2-yl)thiazol-5-yl)isonicotinamide]: the IC50 on GSK3β (setting [1]) turned out to be 650 nM; in the test with pTau, 5500 nM.

`O=C(Nc1cnccc1-c1cccnc1)c1ccnc(NC(=O)C2CC2)c1` [Example 32, N-([3,4′-bipyridin]-3′-yl)-2-(cyclopropanecarboxamido)isonicotinamide]: the IC50 amounted to 160 nM on GSK3β (setting [1]) and 3200 nM in the test with pTau.

As for `N#Cc1cscc1-c1cncc(NC(=O)c2ccnc(NC(=O)C3CC3)c2)c1` [Example 131, N-(5-(4-cyanothiophen-3-yl)pyridin-3-yl)-2-(cyclopropanecarboxamido)isonicotinamide], the values for the IC50 at GSK3β (setting [1]) and at GSK3α were 0.41 nM and 0.76 nM, respectively.

For the molecule `CC(=O)c1ccccc1-c1cncc(NC(=O)c2ccnc(NC(=O)C3CC3)c2)c1` [Example 144, N-(5-(2-acetylphenyl)pyridin-3-yl)-2-(cyclopropanecarboxamido)isonicotinamide], the results for the IC50 at GSK3β (setting [1]) and on GSK3α were 55 nM and 15 nM, respectively.

With `O=C(Nc1cnccc1-c1ccc(Cl)cc1)c1ccnc(NC(=O)C2CC(Cl)C2)c1` (stereo not drawn) [Example 225, N-(4-(4-chlorophenyl)pyridin-3-yl)-2-((1,3-cis)-3-cholorocyclobutanecarboxamido)isonicotinamide], the IC50 in the test with pTau was determined as 43 nM.

In the case of `O=C(Nc1cnccc1-c1ccc(C(F)(F)F)cc1C(F)(F)F)c1ccnc(NC(=O)C2CC2)c1` [Example 65, N-(4-(2,4-bis(trifluoromethyl)phenyl)pyridin-3-yl)-2-(cyclopropanecarboxamido)isonicotinamide], the IC50 at GSK3β (setting [1]) was 29 nM; on GSK3α, 25 nM.
